From EP3578378B1, “RECORDING MEDIUM AND METHOD FOR PRODUCING RECORDING MEDIUM” (CANON KABUSHIKI KAISHA, priority 2018, dated 2019)
Values after ≈ are worked out from the molar mass of the structure shown.

Assay: Solubility of compound (B) in water at 20°C (10.0 g sample in 100 mL ion-exchange water, undissolved or recrystallized sample weighed)
Format: physicochemical
Conditions: stirred at 80°C for one hour, cooled to 20°C, more than 10.0 g/100 mL if completely dissolved
Description: The method for measuring this solubility is as follows.
First, 10.0 g of a sample to be measured is added to 100 mL of ion-exchange water, and the resulting mixture is stirred at 80°C for one hour to dissolve the sample. Next, the resulting solution in which the sample is dissolved is cooled to 20°C. The sample that remains without being dissolved or is recrystallized is collected, and the weight thereof is determined. […] Crosslinking Agent

Solubility in water at 20°C [g/100 mL] | solubility thermodynamic at 1 h [mg/mL] | SMILES
>10 | – | CC(=O)[O-].CC(=O)[O-].[O-2].[Zr+4] [ZrO(C2H3O2)2, reference compound]
>10 | – | [Cl-].[Cl-].[O]=[Zr+2] [ZrOCl2, reference compound]
0.5 | – | O=C(O)c1cc(C(=O)O)cc(C(=O)O)c1 [Trimesic acid, trimesic acid]
2.0 | – | O=C(O)c1ccc(C(=O)O)c(C(=O)O)c1 [Trimellitic acid, trimellitic acid]
0.2 | – | NC(=O)c1cc(C(N)=O)cc(C(N)=O)c1 [Trimesamide, trimesamide]

Continued, compound first:

SMILES | Solubility in water at 20°C [g/100 mL] | solubility thermodynamic at 1 h [mg/mL]
O=C(O)/C=C\C(=O)O [Maleic acid, maleic acid, reference compound] | >10.0 | –
O=C(O)/C=C/C(=O)O [Fumaric acid, fumaric acid] | 0.5 | –
O=C(O)c1cc(C(=O)O)c(C(=O)O)cc1C(=O)O [Pyromellitic acid, pyromellitic acid] | – | 15 (≈ 59 mM)
Oc1ccc(O)c(O)c1 [1,2,4-Trihydroxybenzene, 1,2,4-trihydroxybenzene, reference compound] | – | > 100
NC(=O)/C=C/C(N)=O [Fumaramide, fumaramide] | 0.2 | –
O=C(O)c1cccc(C(=O)O)c1C(=O)O [Hemimellitic acid, hemimellitic acid] | 2.0 | –
O=C(O)c1cc(O)c(O)c(O)c1 [Gallic acid, gallic acid] | 1.0 | –
